Patent publication US8173376B2, “Method for identifying compounds for treatment of pain” (Universite Laval, priority 2003, dated 2012)
Entries after “also recorded” stand apart in the source; their conditions may differ.

Assays:
Sprague-Dawley rats [1] = test: Tactile/mechanical nociceptive withdrawal threshold (von Frey) after intrathecal delivery; format: in vivo, rat; conditions: for Nociceptive threshold for mechanical stimulation: intrathecal, 10 μg/day x 6 days
KCC2 = test: Immunoblot of spinal KCC2 protein after intrathecal oligodeoxynucleotide treatment; format: in vivo, rat; conditions: naïve rats, antisense 12 h or 36 h
GlyRs and GABAARs = test: Whole-cell recording of miniature postsynaptic currents (mPSCs) and GABA-evoked responses in LI neurons; format: cell-based, rat; conditions: LI neuron, p>0.5
lamina I (LI) neurons = test: Calcium imaging (fura-2-AM) of GABA-evoked [Ca2+]i rise in lamina I neurons in spinal cord slices; format: cell-based, rat
Sprague-Dawley rats [2] = test: Thermal nociceptive withdrawal latency after intrathecal injection; format: in vivo, rat; conditions: intact naïve rats, DIOA 15-30 μg intrathecal
lamina I neurons = test: Anion reversal potential (Eanion) by gramicidin-D perforated-patch voltage-clamp recording in dorsal horn slices; format: cell-based, rat
Sprague-Dawley rats [3] = conditions: intrathecal, at the doses used
[4] = test system: voltage sensitive Ca2+ channels (VSCCs) and NMDA receptor/channels; conditions: cited from earlier work; for Efficacy in the treatment of neuropathic pain: humans
[5] = lamina I neurons from naïve rats, 50 ng/ml in bath

5′-TCTCCTTGGGATTGCCGTCA-3′ (DNA, all phosphorothioate, methylation of C not given here) [KCC2 antisense oligodeoxynucleotide]
Tactile nociceptive withdrawal threshold (Sprague-Dawley rats [1]; naïve rats, intrathecal antisense each 12 h (0 h, 12 h, 24 h), vs scrambled oligodeoxynucleotide): significant decrease | Spinal KCC2 protein levels (immunoblots) (KCC2): Decrease

CCCCC1(C2CCCC2)Cc2cc(OCC(=O)O)c(Cl)c(Cl)c2C1=O (stereo not shown) [DIOA]
Nociceptive threshold to mechanical stimuli (Sprague-Dawley rats [1]; intact naïve rats, DIOA 15-30 μg intrathecal): rapid and reversible decrease | Effect on peak conductance of synaptic events (mPSCs) (GlyRs and GABAARs; CsCl pipette, Eanion clamped at 0 mV, n=4 neurons x 50 mPSCs): neither affected | Effect on GABA-evoked responses (GlyRs and GABAARs; n=5): neither affected | LI neurons showing an increase in [Ca2+]i on GABA application (lamina I (LI) neurons; naïve rat spinal slices, bath applied DIOA 30 μM): 30% | Proportion of LI neurons displaying a GABA-evoked increase in [Ca2+]i (in words) (lamina I (LI) neurons; naïve rats, in the presence of DIOA, χ2 corrected=4.43): significantly higher | Nociceptive threshold to thermal stimuli (withdrawal latency) (Sprague-Dawley rats [2]): rapid and reversible decrease

O=S(=O)(NCCNC/C=C/c1ccc(Br)cc1)c1cccc2cnccc12 [H-89]
Nociceptive threshold to mechanical stimulation (Sprague-Dawley rats [1]; H-89 380 nmol local spinal delivery, vs vehicle): increase | Change of Eanion (lamina I neurons; lamina I neurons from PNI rats, H-89 15 in bath): significant hyperpolarization

COC(=O)[C@@]1(O)C[C@H]2O[C@]1(C)n1c3ccccc3c3c4c(c5c6ccccc6n2c5c31)C(=O)NC4 [K-252a]
Threshold for tactile nociceptive withdrawal (Sprague-Dawley rats [1]; PNI rats, K-252a 6 nM intrathecal, vs vehicle): increase | Change of Eanion (lamina I neurons; lamina I neurons from PNI rats, K-252a 200 nM in bath): hyperpolarization of the Eanion to a level similar to that observed in lamina I neurons taken from naïve rats; also recorded: significant hyperpolarization | Motor disturbances or sedation (Sprague-Dawley rats [3]): did not produce any motor disturbances or sedation

NCC1(CC(=O)O)CCCCC1 [gabapentin]
Efficacy in the treatment of neuropathic pain [4]: highly efficacious

CNC1(c2ccccc2Cl)CCCCC1=O (stereo not shown) [ketamine]
Efficacy in the treatment of neuropathic pain [4]: highly efficacious | Side effects ([4]; use of Ca2+ channel blockers / NMDA antagonists): many undesirable side effects

NC1=N[C@H](O)[C@H]2[C@H]3O[C@]4(O)O[C@@H]([C@@H](O)[C@@]2(N1)[C@@H]4O)[C@]3(O)CO [tetrodotoxin]
Block of GABA-evoked [Ca2+]i responses (lamina I (LI) neurons): blocked

KN-93
Change of Eanion (lamina I neurons; lamina I neurons from PNI rats, KN-93 5 μM in bath): significant hyperpolarization

NGF: nerve growth factor, activator of TrkA, bath applied
Change of Eanion (lamina I neurons; [5]): significantly depolarized; also recorded: significant depolarization

human recombinant NGF: human recombinant NGF for intrathecal delivery
Nociceptive threshold for mechanical stimulation (Sprague-Dawley rats [1]; naïve rats): very similar decrease

B1: BDNF: brain-derived neurotrophic factor, activator of TrkB, bath applied (protein, UniProt P23560 19-247, looked up)
Neurotrophic factor BDNF …: APMKEANIRGQGGLAYPGVRTHGTLESVNGPKAGSRGLTSLADTFEHVIEELLDEDQKVRPNEENNKDADLYTSRVMLSSQVPLEPPLLFLLEEYKNYLDAANMSMRVRRHSDPARRGELSVCDSISEWVTAADKKTAVDMSGGTVTVLEKVPVSKGQLKQYFYETKCNPMGYTKEGCRGIDKRHWNSQCRTTQSYVRALTMDSKKRIGWRFIRIDTSCVCTLTIKRGR
Change of Eanion (lamina I neurons; [5]): significantly depolarized; also recorded: significant depolarization

B2: human recombinant BDNF: human recombinant BDNF for local spinal delivery (protein, UniProt P23560 19-247, looked up)
Neurotrophic factor BDNF …: B1 Neurotrophic factor BDNF …
Nociceptive threshold for mechanical stimulation (Sprague-Dawley rats [1]; naïve rats): significant decrease
